Consider 76 compounds from patent US20260373266A1, “PROTEIN DEGRADERS AND USES THEREOF” (KYMERA THERAPEUTICS, INC., priority 2022, published 2026).

Structures are written as SMILES.

The target in one assay is T1, DCAF1 WD40 domain (residues 1077-1390) (Homo sapiens, UniProt Q9Y4B6).
T1 construct: DCAF1 WD40 domain (residues 1077-1390)
T1 sequence (Q9Y4B6 1077-1390): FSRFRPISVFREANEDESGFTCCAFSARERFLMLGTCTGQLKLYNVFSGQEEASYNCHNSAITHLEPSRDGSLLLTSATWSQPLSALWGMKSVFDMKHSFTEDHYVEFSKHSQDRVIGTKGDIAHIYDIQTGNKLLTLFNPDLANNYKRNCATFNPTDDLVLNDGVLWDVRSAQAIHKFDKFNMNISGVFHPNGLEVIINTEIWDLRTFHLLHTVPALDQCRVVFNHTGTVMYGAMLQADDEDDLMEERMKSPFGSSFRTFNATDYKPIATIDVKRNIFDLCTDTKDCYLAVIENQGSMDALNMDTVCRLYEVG
Description: DCAF1 binding assay by SPR (Biacore 8K+), DCAF1-3 KD. Conditions: 25 °C, read-out: DCAF1-3 SPR (KD). On the technique in general: SPR reads the build-up and loss of mass on a sensor chip optically.
Consider `Oc1cnc(N[C@@H]2CCCN(c3cccc(F)c3)C2)cc1N1CCOCC1` [I-409], for which the equilibrium dissociation constant (Kd) (usually the equilibrium constant for the complex coming apart) is greater than 200 µM. On to `c1ccc2c(N3CCC[C@@H](Nc4cc(N5CCOCC5)ncn4)C3)cccc2c1` [I-388], for which the Kd is greater than 200 µM. Turning to `Fc1cccc(N2CCC[C@@H](Cc3cc(N4CCOCC4)ccn3)C2)c1` [I-87], the Kd is greater than 200 µM. On the same count and under the same terms, the value for `Cc1ccc(-c2[nH]ncc2C(=O)N[C@@H](CC(N)=O)c2cccc(Cl)c2)c(F)c1` [I-506] was less than 10 µM; that for `OCc1c(CN2CCCCC2)cccc1C1CCCN(c2cccc(F)c2)C1` (stereo not shown) [I-981] was 10 to 100 µM. Same read-out and setting: the value for `NC[C@H]1C[C@H](Nc2cc(N3CCCCC3)ccn2)CN(c2cccc(F)c2)C1` [I-1039] was 10 to 100 µM; that for `NC(=O)C[C@H](NC(=O)c1cn[nH]c1[C@H]1CCCOC1)c1cccc(Cl)c1` [I-345] was greater than 200 µM. Consider `N#Cc1ccc(N2CCC[C@@H](Nc3cc(N4CCOCC4)ccn3)C2)cc1` [I-774], for which the Kd is greater than 200 µM. For `CCCCN1CCN(c2ccnc(NC3CCCN(c4cccc(F)c4)C3)n2)CC1` (stereo not shown) [I-26], the Kd was greater than 200 µM.

Consider `NC(=O)C[C@H](NC(=O)c1n[nH]nc1-c1ccccc1F)c1cccc(Cl)c1` [I-200], for which the equilibrium dissociation constant (Kd) is greater than 200 µM.

With `COCCC1C2CCC1CN(c1ccnc(N[C@@H]3CCCN(c4cccc(F)c4)C3)c1)C2` (stereo partly shown) [I-654], the Kd was less than 10 µM. `C[C@@H]1C[C@@H](Nc2cc(N3CCOCC3)ncn2)CN(c2cccc(F)c2)C1` [I-177]: the Kd is greater than 200 µM. For `NC(=O)C[C@H](NC(=O)c1cn[nH]c1C1CCOCC1)c1cccc(Cl)c1` [I-344], the Kd is less than 10 µM. On to `Fc1cccc(N2CCC[C@@H](N(CC(F)F)c3cc(N4CCOCC4)ccn3)C2)c1` [I-257], for which the Kd is greater than 200 µM. Consider `OCCC[C@@H]1C[C@H]2[C@H](CCCN2c2cccc(F)c2)N1c1cc(N2CCCCC2)ccn1` [I-830], for which the Kd lay within 10 to 100 µM. In the case of `NC(=O)C[C@H](NC(=O)c1ccc(-c2nc(C3CC3)n[nH]2)cc1)c1cccc(Cl)c1` [I-439], the dissociation constant (Kd) is greater than 200 µM. In the case of `Cc1c(F)ccc(F)c1-c1c(C(=O)N[C@@H](CC(N)=O)c2cccc(Cl)c2)csc1C#N` [I-972], the Kd was less than 10 µM.

As to `Fc1cccc(N2CCC[C@@H](Nc3cc(N4CCOCC4)ncc3Cl)C2)c1` [I-406], the Kd is greater than 200 µM. Still for that read-out and setting: the value for `NC(=O)CCc1cc(N2CCC[C@@H]3[C@H]2CCN3c2cc(N3CCCCC3)ccn2)ccc1F` [I-875] was 10 to 100 µM; that for `O=C(Nc1ccc(F)c(Cl)c1)C1CCN(c2ccnc(-c3ccccc3)n2)CC1` [I-21] was greater than 200 µM; that for `Fc1cccc(N2CCC[C@@H](n3ccc(N4CCOCC4)c4ccnc3-4)C2)c1` [I-58] was 10 to 100 µM. `CC(F)(c1cc(N2CCOCC2)ccn1)C1CCCN(c2cccc(F)c2)C1` (stereo not shown) [I-266]: the Kd was greater than 200 µM. With `NC(=O)C[C@H](NC(=O)c1cn[nH]c1-c1ncccc1F)c1cccc(Cl)c1` [I-357], the equilibrium dissociation constant (Kd) was greater than 200 µM. `NC(=O)C[C@@]1(NC(=O)c2c[nH]nc2-c2ccccc2F)CCc2c(Cl)cccc21` [I-205]: the Kd is greater than 200 µM. Turning to `O[C@@H]1C[C@@H](Nc2cc(N3CCOCC3)ncn2)CN(c2cccc(F)c2)C1` [I-163], the Kd is greater than 200 µM. With `NC(=O)[C@@H]1C[C@@H](Nc2cc(N3CCCCC3)ccn2)CN(c2cccc(F)c2)C1` [I-1033], the Kd was less than 10 µM.

Consider `Oc1ccc(F)cc1N1CCC[C@H]2[C@@H]1CCN2c1cc(N2CCCCC2)ccn1` [I-813], for which the Kd was 10 to 100 µM. With `NC(=O)C[C@H](NC(=O)c1c[nH]cc1-c1ccccc1F)c1ccccc1Cl` [I-96], the Kd was 10 to 100 µM.

Turning to `c1cc2cc(N3CCC[C@@H](Nc4cc(N5CCOCC5)ncn4)C3)ccc2cn1` [I-401], the Kd was greater than 200 µM. For the compound `Cc1nn(-c2ccccc2)c(C)c1N1CCC[C@@H](Nc2cc(N3CCOCC3)ccn2)C1` [I-418], the Kd was greater than 200 µM. `COc1cccc(C(=O)c2[nH]cc(C(=O)N[C@@H](CC(N)=O)c3cccc(Cl)c3)c2-c2c(F)ccc(F)c2C)c1` [I-795]: the Kd was less than 10 µM. As for `Fc1cccc(N2CCC[C@H](Cc3cc(N4CCOCC4)[nH]n3)C2)c1` [I-632], the Kd is greater than 200 µM. Consider `COCCOCCC1CN(c2cc(N3CCOCC3)ccn2)[C@@H]2CCCN(c3cccc(F)c3)[C@H]12` (stereo partly shown) [I-828], for which the Kd was greater than 200 µM. As for `C=CC(=O)NCCCCC1CCN(c2ccnc(N3CC[C@@H]4[C@H]3CCCN4c3cccc(F)c3)c2)CC1` [I-852], the equilibrium dissociation constant (Kd) is less than 10 µM. For `Fc1cccc(N2CCC[C@H](Nc3cc(N4CCOCC4)ncn3)C2)c1` [I-313], the Kd was greater than 200 µM. For `NC(=O)C[C@H](NC(=O)c1cn(CC2CC2)nc1-c1ccccc1F)c1cccc(Cl)c1` [I-137], the Kd is 10 to 100 µM.

Consider `NC(=O)C[C@H](NC(=O)c1cn[nH]c1-c1ccc(F)cc1)c1cccc(Cl)c1` [I-116], for which the Kd was less than 10 µM. On the same count and under the same terms, next, `Cc1sc2c(c1C)C(c1ccc(Cl)cc1)=N[C@@H](CC(=O)NCCCCCCCCCCCCCCCCCC1CCN(c3ccnc(N4CC[C@@H]5[C@H]4CCCN5c4cccc(F)c4)c3)CC1)c1nnc(C)n1-2` [I-901]: greater than 200 µM; `COCCc1[nH]nc(C(=O)N[C@@H](CC(N)=O)c2cccc(Cl)c2)c1-c1ccccc1F` [I-330]: greater than 200 µM; `C=C1CCCN(c2ccnc(N[C@@H]3CCCN(c4cccc(F)c4)C3)c2)C1=O` [I-461]: greater than 200 µM. For `NC(=O)C[C@@]1(NC(=O)c2c[nH]nc2-c2ccccc2F)CCCc2ccc(Cl)cc21` [I-243], the Kd was greater than 200 µM. On to `O=CNc1ccc(N2CCC[C@@H]3[C@H]2CCN3c2cc(N3CCCCC3)ccn2)cc1F` [I-761], for which the Kd is greater than 200 µM. On to `Cc1cccc(F)c1-c1c(C(=O)N[C@@H](CC(N)=O)c2cccc(Cl)c2)c[nH]c1C(=O)c1cccc(N2CCCCC2)c1` [I-700], for which the Kd is less than 10 µM.

Regarding `Oc1cnc(N2CCOCC2)cc1N[C@@H]1CCCN(c2cccc(F)c2)C1` [I-382], the Kd was greater than 200 µM. As for `C=CC(=O)NCc1n[nH]cc1C(=O)N[C@@H](CC(N)=O)c1cccc(Cl)c1` [I-467], the Kd is greater than 200 µM. Same read-out and setting: next, `OCCCc1cccc(N2CCC[C@@H](Nc3cc(N4CCOCC4)ccn3)C2)c1` [I-862]: 10 to 100 µM. `c1ccc2c(N3CCC[C@@H](Nc4cc(N5CCOCC5)ccn4)C3)nsc2c1` [I-112]: the equilibrium dissociation constant (Kd) lay in the range of 10 to 100 µM. For the compound `N#Cc1ccccc1[C@H](CC(N)=O)NC(=O)c1cn[nH]c1-c1ccccc1F` [I-342], the equilibrium dissociation constant (Kd) was 10 to 100 µM. On to `NC(=O)C[C@H](NC(=O)c1c[nH]c(C(=O)c2ccccc2)c1-c1ccccc1F)c1cccc(Cl)c1` [I-603], for which the dissociation constant (Kd) is less than 10 µM. On to `C[C@H]1CCCN(c2ccnc(N[C@@H]3CCCN(c4cccc(F)c4)C3)c2)C1` [I-570], for which the Kd lay in the range of 10 to 100 µM. Regarding `NC(=O)C[C@H](NC(=O)c1cnn(C(=O)c2ccccc2)c1-c1ccccc1F)c1cccc(Cl)c1` [I-173], the Kd is greater than 200 µM. With `NC(=O)C[C@H](NC(=O)c1cn[nH]c1-c1ccccc1F)c1cccnc1` [I-131], the Kd was greater than 200 µM. On to `C=CC(=O)NCC1CCN(c2ccnc(N3CC[C@H]4[C@@H]3CCCN4c3cccc(F)c3)c2)CC1` [I-671], for which the Kd was less than 10 µM. As for `NC(=O)C[C@H](NC(=O)c1cn[nH]c1-c1cnsc1)c1cccc(Cl)c1` [I-158], the Kd was in the range of 10 to 100 µM.

Turning to `NC(=O)C[C@H](NC(=O)c1n[nH]cc1-c1ccccc1F)c1cccc(Cl)c1` [I-100], the Kd lay in the range of 10 to 100 µM. With `COc1ccc(N2CCC[C@@H]3[C@H]2CCN3c2cc(N3CC4CC(C4)C3)ccn2)cc1F` [I-722], the dissociation constant (Kd) is greater than 200 µM. `Fc1cccc([C@H]2CCC[C@@H](Nc3cc(N4CCOCC4)ccn3)C2)c1` [I-180]: the Kd is greater than 200 µM. For `c1cncc(-c2ccnc(N3CCC[C@@H](Nc4cc(N5CCOCC5)ccn4)C3)n2)c1` [I-416], the Kd lay in the range of 10 to 100 µM.

Turning to `Fc1cccc(N2CCC[C@@H](Nc3cc([C@@H]4CCCNC4)ccn3)C2)c1` [I-109], the Kd was greater than 200 µM. Consider `CCOC(=O)Cc1ccncc1N1CCC[C@@H](Nc2cc(N3CCOCC3)ccn2)C1` [I-766], for which the Kd fell in the range of 10 to 100 µM.

Regarding `CC1(C)CCCCN1c1ccnc(N[C@@H]2CCCN(c3cccc(F)c3)C2)c1` [I-658], the Kd is 10 to 100 µM. For the compound `Cc1cccc(F)c1-c1[nH]ncc1C(=O)N[C@@H](CC(N)=O)c1cccc(Cl)c1` [I-149], the Kd was less than 10 µM.

Regarding `Fc1cccc(N2CCC[C@@H](Nc3cc(N4CCCC5(CC5)C4)ccn3)C2)c1` [I-573], the Kd was 10 to 100 µM. For the compound `COC[C@@](CC(N)=O)(NC(=O)c1c[nH]nc1-c1ccccc1F)c1cccc(Cl)c1` [I-265], the Kd is greater than 200 µM. On the same count and under the same terms, next, `c1cc(N2CCOCC2)cc(N[C@@H]2CCCN(c3ncnc4c3ncn4[C@@H]3CCCCO3)C2)n1` [I-684]: 10 to 100 µM.

As for `NC(=O)[C@@H]1C[C@H](Nc2cc(N3CCCCC3)ccn2)CN(c2cccc(F)c2)C1` [I-1031], the Kd is 10 to 100 µM. Consider `Oc1ccccc1N1CCC[C@@H](Nc2cc(N3CCOCC3)ncn2)C1` [I-16], for which the Kd was greater than 200 µM. As for `Cc1ncc(N2CCOCC2)cc1N[C@@H]1CCCN(c2cccc(F)c2)C1` [I-527], the Kd is greater than 200 µM.

On to `Fc1cccc(N2CCC[C@@H](Nc3cc(N4CCOCC4)ncc3C(F)(F)F)C2)c1` [I-405], for which the Kd is greater than 200 µM. As to `O[C@H]1CCCN(c2ccnc(N3CC[C@@H]4[C@H]3CCCN4c3cccc(F)c3)c2)C1` [I-800], the equilibrium dissociation constant (Kd) is less than 10 µM. On the same count and under the same terms, the value for `C=CC(=O)N(C)[C@H]1C[C@H](N(C)c2ccnc(N[C@@H]3CCCN(c4cccc(F)c4)C3)c2)C1` [I-480] was greater than 200 µM; that for `COc1ccc(-c2[nH]ncc2C(=O)NC(C)C(=O)Nc2ccccc2)cc1` (stereo not shown) [I-838] was greater than 200 µM; that for `NC(=O)C[C@H](NC(=O)c1c[nH]nc1-c1ccccn1)c1cccc(Cl)c1` [I-202] was greater than 200 µM. Regarding `C[C@@H](O)c1cncc(N2CCC[C@@H](Nc3cc(N4CCOCC4)ccn3)C2)c1` [I-484], the dissociation constant Kd is greater than 200 µM. Turning to `NCCCCCCCCCCCCCCCCCC(=O)c1[nH]cc(C(=O)N[C@@H](CC(N)=O)c2cccc(Cl)c2)c1-c1ccccc1F` [I-662], the Kd is greater than 200 µM.

Staying with this assay, now noted: DCAF1-3 SPR (KD), 25 °C.
With `Fc1cccc(N2CCC[C@@H](Nc3cc(N4CCOCC4)ccn3)C2)c1` [I-29, (R)—N—(I-(3-fluorophenyl)piperidin-3-yl)-4-morpholinopyridin-2-amine], the dissociation constant Kd is 10 to 100 µM.
